Counter-ions that a name gives are not always drawn.

Data set [1] deals with females with military-related PTSD. The settings on record: female subgroup (10 active, 17 placebo), 5.6 mg per day sublingual, after 12 weeks of treatment. On the procedure:
(§1) Methods: In this 12-week, multicenter, adaptive design, randomized controlled fixed-dose trial, 5.6 mg cyclobenzaprine-HCl (2×2.8 mg sublingual tablets, comprising a 75%±2% cyclobenzaprine-HCl and 25%±2% mannitol eutectic and a potassium phosphate dibasic anhydrous basifying agent) taken daily at bedtime was compared to placebo for the treatment of PTSD at 45 U.S. sites. […] A pre-planned interim analysis was conducted when about half the originally planned sample of 550 participants had outcome data.
(§2) The modified intention-to-treat (mITT) population, which included all randomized subjects with at least one post-baseline CAPS-5, included 125 participants treated with 5.6 mg dose per day the above cyclobenzaprine-HCl sublingual formulation and 127 participants on placebo were studied.

Data set [2] relates to participants with military-related PTSD. On the procedure: as §1, §2
The subject of data set [3] is females with predominantly civilian PTSD. The settings on record: female completers, 5.6 mg dose (N=58) vs placebo (N=55), 12 weeks. On the procedure:
(§3) Three randomized, placebo-controlled and double-blind clinical trials of the above described 5.6 mg cyclobenzaprine-HCl sublingual formulation (2×2.8 mg tablets) were performed, a Phase 2 study and a Phase 3 study in military-related PTSD, and a Phase 3 study in predominantly civilian PTSD. […] The present retrospective analysis examined the activity of the cyclobenzaprine-HCl sublingual formulation on the Changes in Sexual Functioning Questionnaire short form (CSFQ-14) in the two Phase 3 studies.
(§4) In the Phase 3 study in predominantly civilian PTSD, the inclusion criteria were broadened to include civilian participants with current PTSD, as determined by the CAPS-5. Accordingly, this study included 94% civilian trauma with a minimum baseline severity score of >33 on the CAPS-5. […] Thus, analyses were conducted on the interim analysis sample of 252 participants in the military Phase 3 study (89% male [n=225 M; n=27 F]; 100% military PTSD) and […] subjects in the civilian Phase 3 study (79% female [n=129 F; n=34 M]; 94% civilian PTSD).
(§5) The CSFQ-14 is a validated 14-item measure (Keller, McGarvey, Clayton, 2006) that has male and female versions which were analyzed separately. In addition to a total sexual functioning score, there are five sub-scales: desire/frequency, desire/interest, arousal/excitement, orgasm/complete, and pleasure. The items range on 5-point Likert scale from (never) to (every day). Higher scores reflect greater levels of sexual functioning.

Data set [4] relates to participants with PTSD. The settings on record: 5.6 mg sublingual dose, both Phase 3 studies. The protocol: as §3, §4
Data set [5] concerns participants with military-related PTSD. The settings on record: Phase 2 study, drug and placebo groups. On the procedure: as §3
Data set [6] has as its system participants with PTSD. The settings on record: 5.6 mg dose, all three trials (Phase 2 and two Phase 3). The protocol: as §3
The test system of data set [7] is females with military-related PTSD. The settings on record: 5.6 mg dose (N=8) vs placebo (N=16), 12 weeks. The protocol: as §1, §2
Sexual functioning was measured by Changes in Sexual Functioning Questionnaire short-form (CSFQ-14) which is a validated 14-item measure (Keller, McGarvey, Clayton, 2006). Parallel gender-specific versions are administered to males (CSFQ-14-M) and females (CSFQ-14-F), and each sex was analyzed separately. In addition to a total sexual functioning score, there are five sub-scales: desire/frequency, desire/interest, arousal/excitement, orgasm/complete, and pleasure. The scales range from (never) to (every day) and higher scores reflect greater levels of sexual functioning.
as §4, §5

[8] abbreviates: 5.6 mg sublingual daily, military Phase 3 study.

Take `CN(C)CCC=C1c2ccccc2C=Cc2ccccc21` [cyclobenzaprine-HCl]: in data set [1], the “observed mean improvement in CAPS-5 over placebo” value is −9.1 units. For the same compound, in data set [2] (5.6 mg dose group, military Phase 3 study (placebo: two)), the “participants with at least one AE leading to study discontinuation” value came to 8 participants. For the same compound, the “duration of oral hypoaesthesia (tongue/mouth numbness), the most frequent AE, post administration” value in data set [2] (5.6 mg sublingual daily at bedtime, military Phase 3 study, generally transient) is on record as less than 60 min. In addition, in data set [2] (setting [8]), the “severity of oral hypoaesthesia (most frequent AE)” value was “never rated as severe” and the “severity of somnolence (most common systemic AE)” value is given as “never rated as severe”. Moreover, in data set [3], the “CSFQ-14-F arousal/excitement subscale, Hedges' g effect size vs placebo” value came out at 0.33; the “CSFQ-14-F desire/frequency subscale, Hedges' g effect size vs placebo” value stood at 0.21; the “CSFQ-14-F desire/interest subscale, Hedges' g effect size vs placebo” value worked out at 0.23; the “CSFQ-14-F orgasm/completion subscale, Hedges' g effect size vs placebo” value is 0.29. Moreover, the “CSFQ-14-F pleasure subscale, Hedges' g effect size vs placebo” value in data set [3] stood at 0.19. For the same compound, the “CSFQ-14-F total score, Hedges' g effect size vs placebo” value in data set [3] (p=0.07) amounted to 0.37. For the same compound, in the data set with participants with PTSD [4], the “severity of oral hypoaesthesia (most frequent AE)” value is reported as “never rated as severe” and the “severity of somnolence (most common systemic AE)” value is “never rated as severe”. Besides, the “duration of oral hypoaesthesia (tongue/mouth numbness), the most frequent AE, post administration” value in the data set with participants with PTSD [4] (generally transient) was less than 60 min. Also, in data set [5], the “rates of adverse events related to sexual function” value is given as “very low rates”. Also, in the data set on participants with PTSD [6], the “activity on clinician- and patient-rated global PTSD symptoms (CGI and PGIC)” value is listed as “encouraging activity”. Further, in data set [7], the “CSFQ-14-F arousal/excitement subscale, Hedges' g effect size vs placebo” value came to 0.55; the “CSFQ-14-F desire/frequency subscale, Hedges' g effect size vs placebo” value is 0.46; the “CSFQ-14-F desire/interest subscale, Hedges' g effect size vs placebo” value was found to be 0.63; the “CSFQ-14-F orgasm/completion scale, effect vs placebo” value is on record as “No effect”. Further, in data set [7], the “CSFQ-14-F pleasure subscale, Hedges' g effect size vs placebo” value is on record as 0.54 and the “CSFQ-14-F total score, Hedges' g effect size vs placebo” value is recorded as 0.49.

These data come from patent US20210315841A1, “CYCLOBENZAPRINE TREATMENT FOR SEXUAL DYSFUNCTION” (TONIX PHARMACEUTICALS HOLDING CORP., priority 2020, published 2021).
